Reference: publication PMC5354814, “In silico and in vitro drug screening identifies new therapeutic approaches for Ewing sarcoma” (Oncotarget, 2016)
Where a name gives a salt, the structure may show the parent alone. Read-outs that look alike come from different tables or passages of the source.

Legend:
Format in all cases: cell-based
[1] = tested on: Hs 919.T.; assay: Hits validation, dose-response cell proliferation (CellTiter-Glo)
Description: These drugs were chosen based on their known mechanisms and safety profiles. We also tested the synergy between these drug hits (Supplementary Figures S6–S11). […] We evaluated the anti-proliferation effect in combination treatments using the EWS and control cell lines.
(§1) For hits validation and combination study, cells were harvested and aliquoted into 384-well plates at concentrations of 750–1,500 cells per well in a total of 20 μl/well using a Matrix Wellmate (Thermo Scientific). Five μl of culture media containing either vehicles or drug were added to each well the next day (drug concentrations range from 1 nmol/L to 50 μmol/L). For combination study, selected drugs were archived in robotically accessible plates, to which media was added in preparation for addition to master plates by a Nimbus 96 liquid-dispensing workstation (Hamilton). Liquid transfers to dilution and assay plates were handled using the same workstation. Each 384-well master plate contained four 9 by 9 dose-matrix blocks, with eight serial two-fold dilutions (concentrations range from 7.8 nmol/L to 1 μmol/L). Additional wells were reserved for untreated, and vehicle-treated control wells. Cell proliferation was evaluated using Cell-Titer Glo® reagents (Promega). IC50 values were determined for each drug using SigmaPlot (Systat Software). The combination index values were calculated using SigmaPlot (Systat Software) and CompuSyn.

[2] = tested on: SK-ES-1; assay: as above; conditions: Homo sapiens, SK-ES1; 12-point dose-response 50 μmol/L to 1 nmol/L, mean ± SD
Description: as §1

[3] = tested on: CHLA-258; assay: as above
Description: as §1

[4] = tested on: TC-71; assay: as above
Description: as §1

[5] = tested on: A673; assay: as above
Description: as §1

[6] = tested on: RD-ES; assay: as above
Description: as §1

[7] = tested on: Hs 863.T.; assay: as above
Description: as §1

[8] = tested on: Hs 822.T.; assay: as above
Description: as §1

[9] = tested on: COG-E-352; assay: as above
Description: as §1

[10] = tested on: SK-ES-1; assay: In vitro high-throughput screen of FDA-approved drug library (CellTiter-Glo); conditions: Homo sapiens, SK-ES1; 1 μmol/L drug, 72 hours; read-out: % Inhibition SK-ES-1
Description: (§2) We screened, in parallel to the three computational approaches, an FDA-approved drug library containing 2,316 drugs (1,536 unique chemical entities). […] The drug screening study protocol employed is summarized in Supplementary Table S1.
(§3) Cells were grown to 80–90% confluence, harvested and aliquoted into 384-well plates (black μClear microplates, Greiner bio-one, Germany) at concentrations of 750–1,500 cells per well in a total volume of 25 μl/well using a Matrix Wellmate (Thermo Scientific). Cells were cultured for 72 hours in a 5% CO2 atmosphere at 37°C. Aliquots of 25 μl CellTiter-Glo® Reagent (Promega) were added directly to each well, the plates were incubated at room temperature for 20 min and the luminescence signal was measured according to the manufacturer's protocol. The measurements were made using Infinite® M200 Pro plate reader (Tecan, Switzerland). […] Data were normalized to percentage inhibition. […]
(§4) (A) Color scale for drug inhibition values. […]

[11] = tested on: A673; assay: as above; conditions: Homo sapiens, A673; 1 μmol/L drug, 72 hours; read-out: % Inhibition A673
Description: as §2, §3, §4

[12] = tested on: Hs 919.T.; assay: as above; conditions: 1 μmol/L drug, 72 hours, control cell line; read-out: % Inhibition Hs 919.T.
Description: as §2, §3, §4

[13] = tested on: RD-ES; assay: as above; conditions: RD-ES; 1 μmol/L drug, 72 hours; read-out: % Inhibition RD-ES
Description: as §2, §3, §4

[14] = control cell line, 12-point dose-response, mean ± SD
[15] = 12-point dose-response 50 μmol/L to 1 nmol/L, mean ± SD

Molecule | inhibition at 1 µM [10] [%] | inhibition at 1 µM [11] [%] | inhibition at 1 µM [12] [%] | inhibition at 1 µM [13] [%] | also measured
CN(C)CCOC(=O)COc1ccc(Cl)cc1 [Meclofenoxate] | – | – | – | – | IC50 [1, 14]: > 50 µM; IC50 [2]: > 50 µM; IC50 [3, 15]: > 50 µM; IC50 ([4]; TC-71, 12-point dose-response 50 μmol/L to 1 nmol/L, mean ± SD): > 50 µM; IC50 ([5]; Homo sapiens, A673, 12-point dose-response 50 μmol/L to 1 nmol/L, mean ± SD): > 50 µM; IC50 ([6]; RD-ES, 12-point dose-response 50 μmol/L to 1 nmol/L, mean ± SD): > 50 µM; IC50 [7, 14]: > 50 µM; IC50 [8, 14]: > 50 µM; IC50 [9, 15]: > 50 µM
CO[C@@H]1[C@@H](OC(N)=O)[C@@H](O)[C@H](Oc2ccc3c(O)c(NC(=O)c4ccc(O)c(CC=C(C)C)c4)c(=O)oc3c2C)OC1(C)C [Novobiocin sodium] | < 50 | 60 | < 50 | 51 | –
CCOC(=O)C1=C[C@@H](OC(CC)CC)[C@H](NC(C)=O)[C@@H](N)C1 [Oseltamivir] | 98 | 95 | < 50 | 95 | –
CCCOc1ccc2nc(NC(=O)OC)[nH]c2c1 [Oxibendazole] | 84 | 64 | < 50 | 80 | –
CC(=O)O[C@H]1C(=O)[C@@]2(C)[C@H]([C@H](OC(=O)c3ccccc3)[C@]3(O)C[C@H](OC(=O)[C@H](O)[C@@H](NC(=O)c4ccccc4)c4ccccc4)C(C)=C1C3(C)C)[C@]1(OC(C)=O)CO[C@@H]1C[C@@H]2O [Paclitaxel/Taxol, Paclitaxel] | 96 | 96 | < 50 | 97 | –
Cc1cc(/C=C/c2ccc3cc(N(C)C)ccc3[n+]2C)c(C)n1-c1ccccc1 [Pyrvinium pamoate] | 96 | 84 | < 50 | 98 | –
Cc1nc2ccc(CN(C)c3ccc(C(=O)N[C@@H](CCC(=O)O)C(=O)O)s3)cc2c(=O)[nH]1 [Raltitrexed] | 51 | 59 | < 50 | 80 | –
CO[C@H]1C[C@@H]2CC[C@@H](C)[C@@](O)(O2)C(=O)C(=O)N2CCCC[C@H]2C(=O)O[C@H]([C@H](C)C[C@@H]2CC[C@@H](O)[C@H](OC)C2)CC(=O)[C@H](C)/C=C(\C)[C@@H](O)[C@@H](OC)C(=O)[C@H](C)C[C@H](C)/C=C/C=C/C=C/1C [Rapamycin] | 51 | 67 | < 50 | 62 | –
Nc1nc(=S)c2ncn([C@@H]3O[C@H](CO)[C@@H](O)[C@H]3O)c2[nH]1 [Thioguanosine] | 64 | 73 | < 50 | < 50 | –
Clc1ccccc1CN1CCc2sccc2C1 [Ticlopidine] | < 50 | 66 | < 50 | < 50 | –
CC[C@@]1(O)C(=O)OCc2c1cc1n(c2=O)Cc2cc3c(CN(C)C)c(O)ccc3nc2-1 [Topotecan HCl] | 96 | 97 | < 50 | 97 | –
O=c1[nH]c(=O)n([C@H]2C[C@H](O)[C@@H](CO)O2)cc1C(F)(F)F [Trifluridine] | < 50 | < 50 | < 50 | 71 | –
(R)-Apomorphine | – | – | – | – | IC50 [1]: 16.7 ± 3.02 µM; IC50 [3]: 14.7 ± 6.86 µM; IC50 [4]: 17.3 ± 2.21 µM; IC50 [5]: 8.52 ± 2.14 µM; IC50 [6]: 7.85 ± 1.69 µM; IC50 [7]: 15.2 ± 2.19 µM; IC50 [8]: 14.3 ± 1.47 µM; IC50 [9]: 4.01 ± 1.55 µM
